{
  "source": "patent US8344008B2",
  "about": "(Janssen Pharmaceutica NV, priority 2007, dated 2013)",
  "origin": "cited, not measured here",
  "key": {"[1]": {"tested_on": "LTB4 production", "settings": "oral administration; mouse blood ex vivo; cited from earlier work"}, "[2]": {"tested_on": "LTB4 production", "settings": "oral administration; rat peritoneum in vivo; cited from earlier work"}, "[3]": {"tested_on": "colitis symptoms", "settings": "eight weeks of treatment; cotton top tamarins; cited from earlier work"}},
  "note": "Read-outs that look alike come from different tables or passages of the source.",
  "data": [
    {"smiles": "CN(CCCOc1ccc(Cc2ccccc2)cc1)CCC(=O)O.Cl", "note": "[SC57461]", "values": [
      {"measurement": "inhibition of ionophore-induced LTB4 production", "setting": "[1]", "result": "caused inhibition"},
      {"measurement": "inhibition of ionophore-induced LTB4 production", "setting": "[2]", "result": "caused inhibition"},
      {"measurement": "colitis symptoms", "setting": "[3]", "result": "significantly improved colitis symptoms"}
    ]}
  ]
}
